The source made the active and inactive calls. The calls are words filed in the database; no cut-off is given here.
Assays:
[1] = organism: Rattus norvegicus; assay: Inhibition of NADH-cytochrome c reductase in Wistar Albino rat liver mitochondria at 100 uM relative to control; design: scale not given: the % may be the effect or the level left
[2] = organism: Rattus norvegicus; assay: Inhibition of NADH-cytochrome c reductase in Wistar Albino rat liver mitochondria at 200 uM relative to control; design: scale not given: the % may be the effect or the level left
[3] = organism: Rattus norvegicus; assay: Inhibition of succinate oxidase in Wistar Albino rat liver mitochondria at 25 uM relative to control; design: scale not given: the % may be the effect or the level left
[4] = organism: Rattus norvegicus; assay: Inhibition of succinate oxidase in Wistar Albino rat liver mitochondria at 50 uM relative to control; design: scale not given: the % may be the effect or the level left
[5] = organism: Rattus norvegicus; assay: Inhibition of succinate oxidase in Wistar Albino rat liver mitochondria at 75 uM relative to control; design: scale not given: the % may be the effect or the level left
[6] = organism: Rattus norvegicus; assay: Inhibition of succinate oxidase in Wistar Albino rat liver mitochondria at 100 uM relative to control; design: scale not given: the % may be the effect or the level left
[7] = organism: Rattus norvegicus; assay: Inhibition of succinate oxidase in Wistar Albino rat liver mitochondria at 200 uM relative to control; design: scale not given: the % may be the effect or the level left
[8] = organism: Rattus norvegicus; assay: Inhibition of succinate dehydrogenase in Wistar Albino rat liver mitochondria at 25 uM relative to control; design: scale not given: the % may be the effect or the level left
[9] = organism: Rattus norvegicus; assay: Inhibition of succinate dehydrogenase in Wistar Albino rat liver mitochondria at 50 uM relative to control; design: scale not given: the % may be the effect or the level left
[10] = organism: Rattus norvegicus; assay: Inhibition of succinate dehydrogenase in Wistar Albino rat liver mitochondria at 75 uM relative to control; design: scale not given: the % may be the effect or the level left
[11] = organism: Rattus norvegicus; assay: Inhibition of succinate dehydrogenase in Wistar Albino rat liver mitochondria at 100 uM relative to control; design: scale not given: the % may be the effect or the level left
[12] = organism: Rattus norvegicus; assay: Inhibition of succinate dehydrogenase in Wistar Albino rat liver mitochondria at 200 uM relative to control; design: scale not given: the % may be the effect or the level left
[13] = organism: Rattus norvegicus; assay: Inhibition of succinate-cytochrome c reductase in Wistar Albino rat liver mitochondria at 50 uM relative to control; design: scale not given: the % may be the effect or the level left
[14] = organism: Rattus norvegicus; assay: Inhibition of succinate-cytochrome c reductase in Wistar Albino rat liver mitochondria at 75 uM relative to control; design: scale not given: the % may be the effect or the level left
[15] = organism: Rattus norvegicus; assay: Inhibition of succinate-cytochrome c reductase in Wistar Albino rat liver mitochondria at 100 uM relative to control; design: scale not given: the % may be the effect or the level left
[16] = organism: Rattus norvegicus; assay: Inhibition of succinate-cytochrome c reductase in Wistar Albino rat liver mitochondria at 200 uM relative to control; design: scale not given: the % may be the effect or the level left
[17] = organism: Rattus norvegicus; assay: Inhibition of cytochrome c oxidase in Wistar Albino rat liver mitochondria at 25 uM relative to control; design: scale not given: the % may be the effect or the level left
[18] = organism: Rattus norvegicus; assay: Inhibition of cytochrome c oxidase in Wistar Albino rat liver mitochondria at 50 uM relative to control; design: scale not given: the % may be the effect or the level left
[19] = organism: Rattus norvegicus; assay: Inhibition of cytochrome c oxidase in Wistar Albino rat liver mitochondria at 75 uM relative to control; design: scale not given: the % may be the effect or the level left
[20] = organism: Rattus norvegicus; assay: Inhibition of cytochrome c oxidase in Wistar Albino rat liver mitochondria at 100 uM relative to control; design: scale not given: the % may be the effect or the level left
[21] = system: Liver; assay: Reduction of cytochrome c in rat liver mitochondria in presence of catalase at 200 uM; type: functional; design: scale not given: the % may be the effect or the level left
[22] = organism: Rattus norvegicus; assay: Inhibition of cytochrome c oxidase in Wistar Albino rat liver mitochondria at 200 uM relative to control; design: scale not given: the % may be the effect or the level left
[23] = organism: Rattus norvegicus; assay: Inhibition of ATPase in Wistar Albino rat livers disrupted mitochondria at 25 uM relative to control; design: scale not given: the % may be the effect or the level left
[24] = organism: Rattus norvegicus; assay: Inhibition of ATPase in Wistar Albino rat livers disrupted mitochondria at 50 uM relative to control; design: scale not given: the % may be the effect or the level left
[25] = organism: Rattus norvegicus; assay: Inhibition of ATPase in Wistar Albino rat livers disrupted mitochondria at 75 uM relative to control; design: scale not given: the % may be the effect or the level left
[26] = organism: Rattus norvegicus; assay: Inhibition of ATPase in Wistar Albino rat livers disrupted mitochondria at 100 uM relative to control; design: scale not given: the % may be the effect or the level left
[27] = organism: Rattus norvegicus; assay: Inhibition of ATPase in Wistar Albino rat livers disrupted mitochondria at 200 uM relative to control; design: scale not given: the % may be the effect or the level left
[28] = organism: Rattus norvegicus; assay: Inhibition of ATPase in Wistar Albino rat livers intact mitochondria at 25 uM relative to control; design: scale not given: the % may be the effect or the level left
[29] = system: Liver; assay: Reduction of cytochrome c in rat liver mitochondria in presence of NADH at 200 uM; type: functional
[30] = organism: Rattus norvegicus; assay: Inhibition of ATPase in Wistar Albino rat livers intact mitochondria at 50 uM relative to control; design: scale not given: the % may be the effect or the level left
[31] = organism: Rattus norvegicus; assay: Inhibition of ATPase in Wistar Albino rat livers intact mitochondria at 75 uM relative to control; design: scale not given: the % may be the effect or the level left
[32] = organism: Rattus norvegicus; assay: Inhibition of ATPase in Wistar Albino rat livers intact mitochondria at 100 uM relative to control; design: scale not given: the % may be the effect or the level left
[33] = organism: Rattus norvegicus; assay: Inhibition of ATPase in Wistar Albino rat livers intact mitochondria at 200 uM relative to control; design: scale not given: the % may be the effect or the level left
[34] = organism: Rattus norvegicus; assay: Inhibition of ATPase in Wistar Albino rat livers intact mitochondria at 25 uM in presence of FCCP relative to control; design: scale not given: the % may be the effect or the level left
[35] = organism: Rattus norvegicus; assay: Inhibition of ATPase in Wistar Albino rat livers intact mitochondria at 50 uM in presence of FCCP relative to control; design: scale not given: the % may be the effect or the level left
[36] = organism: Rattus norvegicus; assay: Inhibition of ATPase in Wistar Albino rat livers intact mitochondria at 75 uM in presence of FCCP relative to control; design: scale not given: the % may be the effect or the level left
[37] = organism: Rattus norvegicus; assay: Inhibition of ATPase in Wistar Albino rat livers intact mitochondria at 100 uM in presence of FCCP relative to control; design: scale not given: the % may be the effect or the level left
[38] = organism: Rattus norvegicus; assay: Inhibition of ATPase in Wistar Albino rat livers intact mitochondria at 200 uM in presence of FCCP relative to control; design: scale not given: the % may be the effect or the level left
[39] = system: Liver; assay: Reduction of cytochrome c in rat liver mitochondria in presence of EDTA at 200 uM; type: functional
[40] = system: Liver; assay: Reduction of cytochrome c in rat liver mitochondria in presence of SOD at 200 uM; type: functional; design: scale not given: the % may be the effect or the level left
[41] = system: Liver; assay: Reduction of cytochrome c in rat liver mitochondria in presence of deferoxamine at 200 uM; type: functional
[42] = system: Liver; assay: Reduction of cytochrome c in rat liver mitochondria in presence of SOD and catalase at 200 uM; type: functional

Activity [1]: 40%
Activity [2]: 19%
Activity [3]: 87%
Activity [4]: 83%
Activity [5]: 86%
Activity [6]: 77%
Activity [7]: 77%
Activity [8]: 71%
Activity [9]: 69%
Activity [10]: 78%
Activity [11]: 50%
Activity [12]: 51%
Activity [13]: 23%
Activity [14]: 12%
Activity [15]: 29%
Activity [16]: 18%
Activity [17]: 98%
Activity [18]: 104%
Activity [19]: 102%
Activity [20]: 96%
Activity [21]: 15%
Activity [22]: 82%
Activity [23]: 103%
Activity [24]: 102%
Activity [25]: 105%
Activity [26]: 94%
Activity [27]: 90%
Activity [28]: 99%
Activity [30]: 94%
Activity [31]: 98%
Activity [32]: 97%
Activity [33]: 101%
Activity [34]: 93%
Activity [35]: 90%
Activity [36]: 97%
Activity [37]: 100%
Activity [38]: 102%
Activity [42]: inactive
Structure (SMILES): COc1c(O)cc2oc(-c3ccc(O)c(O)c3)cc(=O)c2c1O
Activity [29]: Active
Activity [39]: Active
Activity [40]: 46%
Activity [41]: inactive
